Data taken from patent US11384060B2, “Amide compounds and use thereof” (ALPHALA CO., LTD., priority 2017, dated 2022).
Where two headings read alike, the source gives them in different places.

Legend:
glucagon receptor (GCGR) = molecular target: T1, glucagon receptor (GCGR) (Homo sapiens, UniProt P47871); experiment: I125-glucagon binding assay (competition, GCGR membrane fractions)
T1 construct: expressed in transfected cells; host or cells: CHO-K1 cells overexpressing GCGR (membrane fractions)
Procedure, shortened: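 Competition of 0.0625 nM (final) I^125-glucagon for 30 min at 25° C, after 5 min compound preincubation, using 7.5 μg/well GCGR-overexpressing CHO-K1 membranes in 50 mM Tris pH 7.4, 0.5% BSA. Filtration onto PEI-coated GF/B, micro-beta counting, and non-linear regression gave IC50.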

[1] = molecular target: T2, glucagon receptor (GCGR) overexpressed CHO-K1 cells or human primary hepatocytes (Homo sapiens, UniProt P47871); experiment: Glucagon cAMP inhibition assay (Cisbio cAMP Dynamic 2 HTRF); assay type: cell-based
T2 construct: expressed in transfected cells; host or cells: GCGR overexpressed CHO-K1 cells or human primary hepatocytes (endogenous receptor)
Procedure, shortened: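 HTRF read-out of glucagon-induced cAMP, with IC50 from non-linear regression. Cells (GCGR CHO-K1 or human primary hepatocytes) in HBSS/0.1% BSA/800 nM IBMX took compound dilutions for 30 min (final DMSO 1%), then EC50-level glucagon for 30 min at room temperature, then a 60 min lysis/detection step.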

[2] = competition with I125-glucagon 0.0625 nM, membrane fractions of GCGR overexpressed CHO-K1 cells
[3] = inhibition of glucagon (EC50 concentration) induced cAMP production

T1 sequence (P47871 26-477): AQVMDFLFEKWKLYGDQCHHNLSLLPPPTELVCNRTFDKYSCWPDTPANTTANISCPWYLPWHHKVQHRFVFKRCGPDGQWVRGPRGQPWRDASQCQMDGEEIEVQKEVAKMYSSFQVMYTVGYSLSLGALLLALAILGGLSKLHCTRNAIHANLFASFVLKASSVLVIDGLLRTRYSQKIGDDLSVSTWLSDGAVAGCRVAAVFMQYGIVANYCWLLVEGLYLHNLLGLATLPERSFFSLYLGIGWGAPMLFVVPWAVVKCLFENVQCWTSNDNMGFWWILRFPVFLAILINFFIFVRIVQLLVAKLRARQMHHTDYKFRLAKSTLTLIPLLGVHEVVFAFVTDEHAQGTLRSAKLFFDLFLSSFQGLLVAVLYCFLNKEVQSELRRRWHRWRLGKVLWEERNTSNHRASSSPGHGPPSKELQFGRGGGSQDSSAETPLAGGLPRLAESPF
T2 sequence (P47871 26-477): as above

IC50 (glucagon receptor (GCGR); [2]) [µM] | IC50 cAMP [1, 3] [µM] | IC50 (glucagon receptor (GCGR)) [µM] | IC50 cAMP [1] [µM] | SMILES | further results
– | – | 5.18 | 0.0928 | CCOC(=O)CCNC(=O)c1ccc(N[C@H](C(=O)Nc2ccc(-c3cc4ccccc4o3)cc2)C(C)C)cc1 [Compound 23-32, Ethyl (S)-3-(4-((1-((4-(benzofuran-2-yl)phenyl)amino)-3-methyl-1-oxobutan-2-yl)amino)benzamido)propanoate] | –
– | – | 0.669 | 0.999 | CC(C)C[C@@H](COc1ccc(-c2ccc(C(F)(F)F)cc2F)cn1)Nc1ccc(C(=O)NCCC(=O)O)cc1 [Compound 15-16, (S)-3-(4-((1-((5-(2-fluoro-4-(trifluoromethyl)phenyl)pyridin-2-yl)oxy)-4-methylpentan-2-yl)amino)benzamido)propanoic Acid] | –
– | – | > 30 | >30 | CC(C)[C@@H](COc1nnc(-c2ccc(C(C)(C)C)cc2)o1)Nc1ccc(C(=O)NCCC(=O)O)cc1 [Compound 22-16, (S)-3-(4-((1-((5-(4-(tert-butyl)phenyl)-1,3,4-oxadiazol-2-yl)oxy)-3-methylbutan-2-yl)amino)benzamido)propanoic Acid] | –
– | – | 0.02 | 0.107 | O=C(O)CCNC(=O)c1ccc(N[C@H](COc2ccc(-c3cc4ccccc4o3)cn2)c2ccc(-c3ccc(C(F)(F)F)cc3)cc2)cc1 [Compound 15-29, (S)-3-(4-((2-((5-(benzofuran-2-yl)pyridin-2-yl)oxy)-1-(4′-(trifluoromethyl)-[1,1′-biphenyl]-4-yl)ethyl)amino)benzamido)propanoic Acid] | –
– | – | 0.512 | 0.6304 | CCCOC[C@H](Cc1ccc(-c2ccc(OC(F)(F)F)cc2)cc1)Nc1ccc(C(=O)NCCC(=O)O)cc1 [Compound 19-24, (S)-3-(4-((1-propoxy-3-(4′-(trifluoromethoxy)-[1,1′-biphenyl]-4-yl)propan-2-yl)amino)benzamido)propanoic Acid] | –
– | – | 1.31 | 1.126 | CCCOC[C@H](Cc1ccc(-c2cccc(C(F)(F)F)c2)cc1)Nc1ccc(C(=O)NCCC(=O)O)cc1 [Compound 19-23, (S)-3-(4-((1-propoxy-3-(3′-(trifluoromethyl)-[1,1′-biphenyl]-4-yl)propan-2-yl)amino)benzamido)propanoic Acid] | –
0.015 | 0.066 | – | – | CCCC[C@@H](COc1ccc(-c2ccc(C(F)(F)F)cc2F)c(OC)c1)Nc1ccc(C(=O)NCCC(=O)O)cc1 [Compound 13-14, (S)-3-(4-((1-((2′-fluoro-2-methoxy-4′-(trifluoromethyl)-[1,1′-biphenyl]-4-yl)oxy)hexan-2-yl)amino)benzamido)propanoic Acid] | –
– | – | 6.94 | 0.179 | COC(=O)CCNC(=O)c1ccc(N[C@@H](CC(C)C)C(=O)Nc2ccc(-c3cc4ccccc4[nH]3)cc2)cc1 [Compound 23-28, Methyl (S)-3-(4-((1-((4-(1H-indol-2-yl)phenyl)amino)-4-methyl-1-oxopentan-2-yl)amino)benzamido)propanoate] | –
– | – | 0.098 | 0.123 | CC[C@H](C)[C@@H](COc1ccc(-c2ccc(C(F)(F)F)cc2Cl)cn1)Nc1ccc(C(=O)NCCC(=O)O)cc1 [Compound 15-13, 3-(4-(((2S,3S)-1-((5-(2-chloro-4-(trifluoromethyl)phenyl)pyridin-2-yl)oxy)-3-methylpentan-2-yl)amino)benzamido)propanoic Acid] | –
– | – | 4.15 | 5.8 | O=C(O)CCNC(=O)c1ccc(N[C@@H](Cc2ccccc2)C(=O)Nc2ccc(-c3ccccc3C(F)(F)F)cc2)cc1 [Compound 23-23] | –
– | – | > 30 | >30 | CCOC(=O)CCNC(=O)c1ccc(N[C@H](COc2ccc(-c3nnc(C(C)(C)C)o3)cn2)c2ccc(-c3ccc(Cl)cc3Cl)cc2)cc1 [Compound 15-33, Ethyl (S)-3-(4-((2-((5-(5-(tert-butyl)-1,3,4-oxadiazol-2-yl)pyridin-2-yl)oxy)-1-(2′,4′-dichloro-[1,1′-biphenyl]-4-yl)ethyl)amino)benzamido)propanoate] | –
0.107 | 0.14 | – | – | CC(C)[C@@H](COc1cc(F)c(-c2ccc(C(F)(F)F)cc2)c(F)c1)Nc1ccc(C(=O)NCCC(=O)O)cc1 [Compound 7-3, (S)-3-(4-((1-((2,6-difluoro-4′-(trifluoromethyl)-[1,1′-biphenyl]-4-yl)oxy)-3-methylbutan-2-yl)amino)benzamido)propanoic Acid] | –
– | – | – | 5.4 | CCOC(=O)CCNC(=O)c1ccc(N[C@@H](Cc2ccc3ccccc3c2)C(=O)Nc2ccc(C(C)(C)C)cc2)cc1 [Compound 23-19, Ethyl (S)-3-(4-((1-((4-(tert-butyl)phenyl)amino)-3-(naphthalen-2-yl)-1-oxopropan-2-yl)amino)benzamido)propanoate] | IC50 (glucagon receptor (GCGR); uM): > 10 µM

Continued, compound first:

SMILES | IC50 (glucagon receptor (GCGR); [2]) [µM] | IC50 cAMP [1, 3] [µM] | IC50 (glucagon receptor (GCGR)) [µM] | IC50 cAMP [1] [µM] | further results
CC(C)[C@@H](COc1ccc(-c2ccc(N(C)C)cc2Cl)cc1)Nc1ccc(C(=O)NCCC(=O)O)cc1 [Compound 1-37, (S)-3-(4-((1-((2′-chloro-4′-(dimethylamino)-[1,1′-biphenyl]-4-yl)oxy)-3-methylbutan-2-yl)amino)benzamido)propanoic Acid] | 0.372 | 0.376 | – | – | –
CC(C)[C@@H](COc1cc(Cl)c(-c2cc3ccccc3o2)cc1Cl)Nc1ccc(C(=O)NCCC(=O)O)cc1 [Compound 3-14, (S)-3-(4-((1-(4-(benzofuran-2-yl)-2,5-dichlorophenoxy)-3-methylbutan-2-yl)amino)benzamido)propanoic Acid] | 0.058 | 0.1154 | – | – | –
CC(C)[C@@H](COc1ccc(-c2cc3ncccc3o2)cc1)Nc1ccc(C(=O)NCCC(=O)O)cc1 [Compound 1-41, (S)-3-(4-((1-(4-(furo[3,2-b]pyridin-2-yl)phenoxy)-3-methylbutan-2-yl)amino)benzamido)propanoic Acid] | 0.227 | 1.403 | – | – | –
CCCC[C@@H](COc1ccc(-c2cc3ccccc3o2)cc1)Nc1ccc(C(=O)NCCC(=O)O)cc1 [Compound 1-10, (S)-3-(4-((1-(4-(benzofuran-2-yl)phenoxy)hexan-2-yl)amino)benzamido) propanoic Acid] | 0.122 | 0.6298 | – | – | –
CC[C@H](C)[C@@H](COc1cc(C)c(-c2ccc(Cl)cc2Cl)c(C)c1)Nc1ccc(C(=O)NCCC(=O)O)cc1 [Compound 2-9, 3-(4-(((2S,3S)-1-((2′,4′-dichloro-2,6-dimethyl-[1,1′-biphenyl]-4-yl)oxy)-3-methylpentan-2-yl)amino)benzamido)propanoic Acid] | 0.06 | 0.4476 | – | – | –
CC(C)[C@H](COc1ccc(-c2nc3ccccc3o2)cc1)Nc1ccc(C(=O)NCCC(=O)O)cc1 [Compound 1-54, (R)-3-(4-((1-(4-(benzo[d]oxazol-2-yl)phenoxy)-3-methylbutan-2-yl)amino)benzamido)propanoic Acid] | 0.095 | 0.213 | – | – | –
CCOC(=O)CCNC(=O)c1ccc(N[C@@H](Cc2cccc3ccccc23)C(=O)Nc2ccc(-c3cc4ccccc4o3)cc2)cc1 [Compound 23-13, Ethyl (S)-3-(4-((1-((4-(benzofuran-2-yl)phenyl)amino)-3-(naphthalen-1-yl)-1-oxopropan-2-yl)amino)benzamido)propanoate] | – | – | – | – | IC50 (glucagon receptor (GCGR); uM): > 10 µM; IC50 cAMP ([1]; uM): >10 µM
